Series [1] relates to rat CDHFD+NaNO2 NASH model. Description: Rat CDHFD+NaNO2 NASH model, liver RNAseq. It counts as in vivo. The conditions noted are these: 8 wk, Compound 3 3 mg/kg, Compound 1 25 mg/kg; for Down DEGs / Total DEGs / Up DEGs: liver RNAseq vs vehicle NASH control, adj. p<0.01, fold-change ≥1.5. As for the experimental part: Animal handling: After arrival, the rats were left for a 2-week acclimation period, during which they were accustomed to the animal facility staff and trained on the procedure of oral gavage. After 2 weeks the animals were put on CHDFD (choline deficient high fat diet) and pre-fed for 4 weeks. Then the rats were started on treatment with test compounds, and 3× per week i.p. NaNO2 injections, while they remained on CDHFD, for an additional 8 weeks. NaNO2 was administered at 25 mg/kg i.p. dissolved in PBS 3 times a week (on Mondays, Wednesdays, and Fridays) for 8 weeks while on CDHFD.
Final Sacrifice: Half of the animals of each treatment group were terminated on day 84. The other half of the animals in each group were terminated on the following day, day 85. On the day of sacrifice the animals were fasted for 2 h and received a final treatment with the respective test substance. After the final compound treatment, the animals had no more access to food until sacrifice. At 4 h after the last administration all animals were sacrificed and livers were sampled for further analysis.
Animal handling: After arrival, the rats were left for a 2-week acclimation period, during which they were accustomed to the animal facility staff and trained on the procedure of oral gavage. After 2 weeks the animals were placed on a choline deficient high fat diet (CDHFD) and pre-fed for 4 weeks to induce steatosis and a NASH-like disease phenotype. Rats were then treated with test compounds for an additional 8 weeks while on CDHFD. Concomitant with compound treatment, rats were administered sodium nitrite (NaNO2, 25 mg/kg dissolved in PBS) by triweekly intraperitoneal (IP) injection to induce liver fibrosis.
Final Sacrifice: Half of the animals of each treatment group were terminated on day 84. The other half of the animals in each group were terminated on the following day, day 85. On the day of sacrifice the animals were fasted for 2 hours and received a final treatment with the respective test substance. After the final compound treatment, the animals had no more access to food until sacrifice. At 4 hours after the last administration all animals were sacrificed and livers were sampled for further analysis.
Sampling and analysis: Small liver pieces were harvested into RNAlater (Thermo Fisher Scientific Dreieich Germany) and stored at −20° C. prior to RNA sequencing (RNAseq) at MedGenome Inc. RNAseq analysis was performed on liver tissue by Illumina sequencing using standard methodologies. Briefly, RNAseq libraries (n=5 per group) were generated using Illumina Truseq stranded mRNA kits and sequencing was performed on a NovaSeq 6000 sequencer. Alignment was performed using STAR (v2.7.3a) aligner and reads mapping to ribosomal and mitochondrial genome were removed prior to alignment. Raw read counts were estimated using HTSeq (v0.11.1) and normalized using DESeq2 (v2.22.2). Differentially expressed genes (DEGs) were determined using DESeq2 (R Bioconductor package).

The next series addresses T1, BCRP (Homo sapiens, UniProt Q9UNQ0).
T1 sequence (Q9UNQ0 1-655): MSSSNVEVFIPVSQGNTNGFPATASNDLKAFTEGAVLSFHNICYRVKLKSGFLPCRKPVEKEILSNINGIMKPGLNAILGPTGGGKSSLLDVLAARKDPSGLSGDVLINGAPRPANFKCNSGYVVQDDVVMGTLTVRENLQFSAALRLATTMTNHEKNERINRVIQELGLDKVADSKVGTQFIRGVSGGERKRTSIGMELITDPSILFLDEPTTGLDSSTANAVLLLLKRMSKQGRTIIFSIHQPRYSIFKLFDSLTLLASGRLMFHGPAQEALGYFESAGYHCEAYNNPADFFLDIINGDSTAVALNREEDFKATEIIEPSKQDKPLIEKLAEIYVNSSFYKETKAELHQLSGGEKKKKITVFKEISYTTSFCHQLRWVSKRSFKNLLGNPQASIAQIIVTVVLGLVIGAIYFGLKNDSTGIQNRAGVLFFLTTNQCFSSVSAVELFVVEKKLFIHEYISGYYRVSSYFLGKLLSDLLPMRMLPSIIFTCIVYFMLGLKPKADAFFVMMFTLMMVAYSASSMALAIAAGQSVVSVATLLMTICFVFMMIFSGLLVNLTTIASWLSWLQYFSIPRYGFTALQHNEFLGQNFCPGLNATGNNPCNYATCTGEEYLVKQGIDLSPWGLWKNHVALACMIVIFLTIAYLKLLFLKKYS

The nature of series [2]: Trough plasma compound levels in DIO-GAN mice. It is filed as in vivo, mouse. The conditions noted are these: plasma 21-24 h post final dose. As for the experimental part:
Terminal plasma samples were harvested by cardiac puncture approximately 21-24 hours after the last administration of compound(s). Terminal plasma samples were analyzed by high resolution LC-MS/MS using a Triple Quad 6500+ instrument. 20 μL of plasma sample was mixed with 200 μL of internal standard solution (100 ng/mL Labetalol+100 ng/mL Tolbutamide in acetonitrile), vortexed, and centrifuged at 4,000 rpm for 15 min at 4° C. […] The internal standard 1 (retention time: 0.87 min) and standard 2 (retention time: 0.96 min) were used for quantification of Compound 3 (retention time: 0.87 min) and Compound 2 (retention time: 0.97 min), respectively. The internal standard (retention time: 0.76 min), was used for quantification of the glucuronide metabolite of Compound 3 (retention time: 0.77 min). Calibration curves (1-3000 ng/mL) were generated in a matrix of mouse plasma (pooled vehicle control) for each analyte.

Where [3] appears, read: group Combo-high, Compound 3 10 mg/kg + Compound 2 10 mg/kg (14).
Setting [4] is: group Combo-med, Compound 3 10 mg/kg + Compound 2 2 mg/kg (16).

The source of these data is patent US20230241071A1, “COMBINATION TREATMENT OF LIVER DISORDERS” (Terns Pharmaceuticals, Inc., priority 2021, published 2023).

Marks after values point to notes of the source that are not given here.

Take `COC1CCN(c2ncc(OC/C(=C/F)CN)cn2)CC1` [Compound 1, (E)-3-fluoro-2-(((2-(4-methoxypiperidin-1-yl)pyrimidin-5-yl)oxy)methyl)prop-2-en-1-amine]: in series [1], the “Down DEGs” value is 641, the “Total DEGs” value came to 847 and the “Up DEGs” value stood at 206.
Regarding `N#Cc1nn(-c2cc(Cl)c(Oc3n[nH]c(=O)c4ccccc34)c(Cl)c2)c(=O)[nH]c1=O` [Compound 2, 2-(3,5-dichloro-4-((4-oxo-3,4-dihydrophthalazin-1-yl)oxy)phenyl)-3,5-dioxo-2,3,4,5-tetrahydro-1,2,4-triazine-6-carbonitrile], it took 9.37 µM to reach half-maximal inhibition at BCRP (IC50). The “Mean trough analyte concentration (SD)” value is 143.0 (87.9) ng/mL in series [2] (setting [3]), 49.5 (42.9) ng/mL in series [2] (setting [4]), 320.0 (189.9) ng/mL in series [2] (group Compound 2-high 10 mg/kg (16)) and 135.5 (62.0) ng/mL in series [2] (group Compound 2-med 2 mg/kg (15)).
Take `Cn1cc(C(=O)O)c2ccc(N3CCC(OCc4c(-c5c(Cl)cccc5Cl)noc4C4CC4)CC3)cc21` [Compound 3]: in series [1], the “Down DEGs” value amounted to 118, the “Total DEGs” value was 309 and the “Up DEGs” value stood at 191. For the same compound, in series [1] (liver RNAseq), the “Fabp2 differential gene expression relative to vehicle control” value is given as −1.02* log2-fold change, the “Irs1 differential gene expression relative to vehicle control” value was −0.03 log2-fold change, the “Irs2 differential gene expression relative to vehicle control” value came out at 0.27 log2-fold change and the “Ldlr differential gene expression relative to vehicle control” value was found to be 0.4 log2-fold change. In series [1] (liver RNAseq), the “Ldlrap1 differential gene expression relative to vehicle control” value is listed as −0.07 log2-fold change, the “Lrp1 differential gene expression relative to vehicle control” value stood at 0.51 log2-fold change, the “Lrp2 differential gene expression relative to vehicle control” value was found to be 0.33 log2-fold change and the “Ppara differential gene expression relative to vehicle control” value was found to be 0.36 log2-fold change. Further, in series [1] (liver RNAseq), the “Ppargcla differential gene expression relative to vehicle control” value came to 0.25 log2-fold change, the “Rxra differential gene expression relative to vehicle control” value was determined as 0.03 log2-fold change, the “Slc27a1 differential gene expression relative to vehicle control” value is recorded as 0.16 log2-fold change and the “Slc27a5 differential gene expression relative to vehicle control” value came to 0.5 log2-fold change. Also, in series [1] (liver RNAseq), the “Vegfa differential gene expression relative to vehicle control” value is listed as 0.48 log2-fold change, the “Vegfc differential gene expression relative to vehicle control” value was −0.28 log2-fold change and the “Vldlr differential gene expression relative to vehicle control” value is recorded as −0.58 log2-fold change. For the same compound, at BCRP, half-maximal inhibition (IC50) was put at 4.39 µM. Further, the “Mean trough analyte concentration (SD)” value in series [2] (setting [3]) is recorded as 3.3 (1.8) ng/mL. Moreover, in series [2] (setting [4]), the “Mean trough analyte concentration (SD)” value is recorded as 5.8 (3.5) ng/mL. Further, the “Mean trough analyte concentration (SD)” value in series [2] (group Compound 3 10 mg/kg (16)) is given as 7.4 (3.8) ng/mL.
